Measured values published in patent publication US10800792B2, “Inhibitors of Bruton's tyrosine kinase and method of their use” (JANSSEN PHARMACEUTICA NV, priority 2015, dated 2020).

Target: unphosphorylated-BTK kinase domain (UP-BTK), GST-tagged human BTK (389-659aa) (Homo sapiens (Human), UniProt Q06187)
Assay: BTK kinase Lanthascreen binding assay
Conditions: unphosphorylated-BTK kinase domain, 50 nM Tracer 236, 60 minutes, pIC50 = negative log of the IC50 in molar; for IC50: read-out: BTK_I_binding pIC50 (converted)
In short: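 Tracer-displacement binding assay against the non-phosphorylated enzyme, read by Lanthascreen. Reported: pIC50.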

Chain of unphosphorylated-BTK kinase domain (UP-BTK), GST-tagged human BTK (389-659aa) (Q06187 389-659): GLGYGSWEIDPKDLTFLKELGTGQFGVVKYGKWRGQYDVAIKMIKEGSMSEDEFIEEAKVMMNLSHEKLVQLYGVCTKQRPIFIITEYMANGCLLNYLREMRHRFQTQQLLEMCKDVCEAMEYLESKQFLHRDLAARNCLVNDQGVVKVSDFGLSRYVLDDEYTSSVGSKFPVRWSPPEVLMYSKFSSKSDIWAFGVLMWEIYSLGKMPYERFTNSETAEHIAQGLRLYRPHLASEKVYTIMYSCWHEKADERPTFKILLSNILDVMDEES

Row | BTK_I_binding pIC50 | SMILES | IC50 [nM]
1 | 7.5 | CNC/C=C/C(=O)N1CC[C@@H](NC(=O)c2sc3nccc4c3c2NC(=O)N4c2ccc(Oc3ccccc3)cc2C)C1 [Example 377, (R,E)-5-(2-Methyl-4-phenoxyphenyl)-N-(1-(4-(methylamino)but-2-enoyl)pyrrolidin-3-yl)-4-oxo-4,5-dihydro-3H-1-thia-3,5,8-triazaacenaphthylene-2-carboxamide] | –
2 | – | [2H]c1c([2H])c([2H])c(Oc2ccc(N3C(=O)Nc4c(C(=O)N[C@@H]5CCCN(C(=O)/C(C#N)=C/C6CC6)C5)sc5nccc3c45)c(C)c2)c([2H])c1[2H] [Example 378, (R,E)-N-(1-(2-Cyano-3-cyclopropylacryloyl)piperidin-3-yl)-5-(2-methyl-4-(2,3,4,5,6-pentadeuteriophenoxy)phenyl)-4-oxo-4,5-dihydro-3H-1-thia-3,5,8-triazaacenaphthylene-2-carboxamide] | 31.6
3 | – | [2H]c1c([2H])c([2H])c(Oc2ccc(N3C(=O)Nc4c(C(=O)N[C@@H]5CCCN(C#N)C5)sc5nccc3c45)c(C)c2)c([2H])c1[2H] [Example 379, (R)—N-(1-Cyanopiperidin-3-yl)-5-(2-methyl-4-(2,3,4,5,6-pentadeuteriophenoxy)phenyl)-4-oxo-4,5-dihydro-3H-1-thia-3,5,8-triazaacenaphthylene-2-carboxamide] | 31.6
4 | – | [2H]c1c([2H])c([2H])c(Oc2ccc(N3C(=O)Nc4c(C(=O)N[C@@H]5CCCN(C([2H])([2H])[2H])C5)sc5nccc3c45)c(C)c2)c([2H])c1[2H] [Example 380, (R)-5-(2-Methyl-4-(2,3,4,5,6-pentadeuteriophenoxy)phenyl)-N-(1-(trideuteriomethyl)piperidin-3-yl)-4-oxo-4,5-dihydro-3H-1-thia-3,5,8-triazaacenaphthylene-2-carboxamide] | 158
5 | – | [2H]c1c([2H])c([2H])c(Oc2ccc(N3C(=O)Nc4c(C(=O)N[C@@H]5CCCN(C)C5)sc5nccc3c45)c(C)c2)c([2H])c1[2H] [Example 381, (R)-5-(2-Methyl-4-(2,3,4,5,6-pentadeuteriophenoxy)phenyl)-N-(1-methylpiperidin-3-yl)-4-oxo-4,5-dihydro-3H-1-thia-3,5,8-triazaacenaphthylene-2-carboxamide] | 79.4
6 | 7.3 | Cc1cc(Oc2ccccc2)ccc1N1C(=O)Nc2c(C(=O)N[C@@H]3CCN(C(=O)/C=C/CN)C3)sc3nccc1c23 [Example 382, (R,E)-N-(1-(4-Aminobut-2-enoyl)pyrrolidin-3-yl)-5-(2-methyl-4-phenoxyphenyl)-4-oxo-4,5-dihydro-3H-1-thia-3,5,8-triazaacenaphthylene-2-carboxamide] | –
7 | 7.2 | Cc1cc(Oc2ccccc2)ccc1N1C(=O)Nc2c(C(=O)N[C@@H]3CCCN(C(=O)/C=C/CNS(C)(=O)=O)C3)sc3nccc1c23 [Example 383, (R,E)-5-(2-Methyl-4-phenoxyphenyl)-N-(1-(4-(methylsulfonamido)but-2-enoyl)piperidin-3-yl)-4-oxo-4,5-dihydro-3H-1-thia-3,5,8-triazaacenaphthylene-2-carboxamide] | –
8 | 7.1 | Cc1cc(Oc2ccccc2)ccc1N1C(=O)Nc2c(C(=O)N[C@@H]3CCN(C(=O)CN(C)C)C3)sc3nccc1c23 [Example 384, (R)—N-(1-(2-(Dimethylamino)acetyl)pyrrolidin-3-yl)-5-(2-methyl-4-phenoxyphenyl)-4-oxo-4,5-dihydro-3H-1-thia-3,5,8-triazaacenaphthylene-2-carboxamide] | –
9 | 7.9 | C/C=C(\C#N)C(=O)N1CCC[C@@H](NC(=O)c2sc3nccc4c3c2NC(=O)N4c2ccc(Oc3ccccc3)cc2C)C1 [Example 385, (R,E)-N-(1-(2-Cyanobut-2-enoyl)piperidin-3-yl)-5-(2-methyl-4-phenoxyphenyl)-4-oxo-4,5-dihydro-3H-1-thia-3,5,8-triazaacenaphthylene-2-carboxamide] | –
10 | 6.9 | Cc1cc(Oc2ccccc2)ccc1N1C(=O)Nc2c(C(=O)N[C@@H]3CCCN(C(=O)[C@@H]4CCN4)C3)sc3nccc1c23 [Example 386, N—((R)-1-((S)-Azetidine-2-carbonyl)piperidin-3-yl)-5-(2-methyl-4-phenoxyphenyl)-4-oxo-4,5-dihydro-3H-1-thia-3,5,8-triazaacenaphthylene-2-carboxamide] | –
11 | 7.1 | CNC/C=C(\F)C(=O)N1CCC[C@@H](NC(=O)c2sc3nccc4c3c2NC(=O)N4c2ccc(Oc3ccccc3)cc2C)C1 [Example 388, (R,Z)—N-(1-(2-Fluoro-4-(methylamino)but-2-enoyl)piperidin-3-yl)-5-(2-methyl-4-phenoxyphenyl)-4-oxo-4,5-dihydro-3H-1-thia-3,5,8-triazaacenaphthylene-2-carboxamide] | –
12 | 7.0 | Cc1cc(Oc2ccccc2)ccc1N1C(=O)Nc2c(C(=O)N[C@@H]3CCCN(C(=O)CN4CCCC4)C3)sc3nccc1c23 [Example 389, (R)-5-(2-Methyl-4-phenoxyphenyl)-4-oxo-N-(1-(2-(pyrrolidin-1-yl)acetyl)piperidin-3-yl)-4,5-dihydro-3H-1-thia-3,5,8-triazaacenaphthylene-2-carboxamide] | –
13 | 6.9 | C=CC(=O)N1CCC[C@@H](NCc2sc3nccc4c3c2NC(=O)N4c2ccc(Oc3ccccc3)cc2C)C1 [Example 390, (R)-2-(((1-Acryloylpiperidin-3-yl)amino)methyl)-5-(2-methyl-4-phenoxyphenyl)-3H-1-thia-3,5,8-triazaacenaphthylen-4(5H)-one] | –
14 | 7.2 | CNCC(=O)N1CC[C@@H](NC(=O)c2sc3nccc4c3c2NC(=O)N4c2ccc(Oc3ccccc3)cc2C)C1 [Example 391, (R)-5-(2-Methyl-4-phenoxyphenyl)-N-(1-(2-(methylamino)acetyl)pyrrolidin-3-yl)-4-oxo-4,5-dihydro-3H-1-thia-3,5,8-triazaacenaphthylene-2-carboxamide] | –
15 | 7.4 | Cc1cc(Oc2ccccc2)ccc1N1C(=O)Nc2c(C(=O)N[C@@H]3CCN(C(=O)CN)C3)sc3nccc1c23 [Example 392, (R)—N-(1-(2-Aminoacetyl)pyrrolidin-3-yl)-5-(2-methyl-4-phenoxyphenyl)-4-oxo-4,5-dihydro-3H-1-thia-3,5,8-triazaacenaphthylene-2-carboxamide] | –
16 | 6.8 | Cc1cc(Oc2ccccc2)ccc1N1C(=O)Nc2c(C(=O)N[C@@H]3CCCN(C(=O)CN4CCCCC4)C3)sc3nccc1c23 [Example 393, (R)-5-(2-Methyl-4-phenoxyphenyl)-4-oxo-N-(1-(2-(piperidin-1-yl)acetyl)piperidin-3-yl)-4,5-dihydro-3H-1-thia-3,5,8-triazaacenaphthylene-2-carboxamide] | –
17 | 6.8 | Cc1cc(Oc2ccccc2)ccc1N1C(=O)Nc2c(C(=O)N[C@@H]3CCCN(C(=O)CN4CCOCC4)C3)sc3nccc1c23 [Example 394, (R)-5-(2-Methyl-4-phenoxyphenyl)-N-(1-(2-morpholinoacetyl)piperidin-3-yl)-4-oxo-4,5-dihydro-3H-1-thia-3,5,8-triazaacenaphthylene-2-carboxamide] | –
18 | 8.0 | Cc1cc(Oc2ccccc2)ccc1N1C(=O)Nc2c(C(=O)N[C@@H]3CCN(C(=O)CCl)C3)sc3nccc1c23 [Example 395, (R)—N-(1-(2-Chloroacetyl)pyrrolidin-3-yl)-5-(2-methyl-4-phenoxyphenyl)-4-oxo-4,5-dihydro-3H-1-thia-3,5,8-triazaacenaphthylene-2-carboxamide] | –
19 | 7.8 | Cc1cc(Oc2ccccc2)ccc1N1C(=O)Nc2c(C(=O)N[C@@H]3CCCN(C(=O)CCl)C3)sc3nccc1c23 [Example 396, (R)—N-(1-(2-Chloroacetyl)piperidin-3-yl)-5-(2-methyl-4-phenoxyphenyl)-4-oxo-4,5-dihydro-3H-1-thia-3,5,8-triazaacenaphthylene-2-carboxamide] | –
20 | 6.4 | C=CC(=O)N1CCC[C@@H](NC(=O)c2sc3nccc4c3c2NC(=O)N4c2ccc(-c3cccs3)cc2)C1 [Example 397, (R)—N-(1-Acryloylpiperidin-3-yl)-4-oxo-5-(4-(thiophen-2-yl)phenyl)-4,5-dihydro-3H-1-thia-3,5,8-triazaacenaphthylene-2-carboxamide] | –
21 | 7.5 | CC(C)Oc1ccc(N2C(=O)Nc3c(C(=O)N[C@@H]4CCCN(C(=O)/C(C#N)=C/C5CC5)C4)sc4nccc2c34)cc1 [Example 399, (R,E)-N-(1-(2-Cyano-3-cyclopropylacryloyl)piperidin-3-yl)-5-(4-isopropoxyphenyl)-4-oxo-4,5-dihydro-3H-1-thia-3,5,8-triazaacenaphthylene-2-carboxamide] | –
22 | 6.9 | C=CC(=O)N1CCC[C@@H](NC(=O)c2sc3nccc4c3c2NC(=O)N4c2ccc(OC(C)C)cc2)C1 [Example 400, (R)—N-(1-Acryloylpiperidin-3-yl)-5-(4-isopropoxyphenyl)-4-oxo-4,5-dihydro-3H-1-thia-3,5,8-triazaacenaphthylene-2-carboxamide] | –
23 | 6.5 | C/C(=C\C1CC1)C(=O)N1CCC[C@@H](NC(=O)c2sc3nccc4c3c2NC(=O)N4c2ccc(Oc3ccccc3)cc2C)C1 [Example 401, (R,E)-N-(1-(3-Cyclopropyl-2-methylacryloyl)piperidin-3-yl)-5-(2-methyl-4-phenoxyphenyl)-4-oxo-4,5-dihydro-3H-1-thia-3,5,8-triazaacenaphthylene-2-carboxamide] | –
24 | 6.4 | Cc1cc(Oc2ccccc2)ccc1N1C(=O)Nc2c(C(=O)N[C@@H]3CCCN(C(=O)/C=C/CN4CCOCC4)C3)sc3nccc1c23 [Example 403, (R,E)-5-(2-Methyl-4-phenoxyphenyl)-N-(1-(4-morpholinobut-2-enoyl)piperidin-3-yl)-4-oxo-4,5-dihydro-3H-1-thia-3,5,8-triazaacenaphthylene-2-carboxamide] | –
25 | 6.1 | C=CC(=O)N1CCC[C@@H](NC(=O)c2sc3nccc4c3c2NC(=O)N4c2ccc3sccc3c2)C1 [Example 404, (R)—N-(1-Acryloylpiperidin-3-yl)-5-(benzo[b]thiophen-5-yl)-4-oxo-4,5-dihydro-3H-1-thia-3,5,8-triazaacenaphthylene-2-carboxamide] | –
